Results: patent US9126891B2, “Cycloalkyl-diamines” (MediSynergics, LLC, priority 2014, dated 2015)

Tests used:
[1] = tested on: T. brucei brucei clone 427-221a (bloodstream forms); experiment: T. brucei brucei growth inhibition assay (CellTiter-Glo ATP bioluminescence); assay type: cell-based; conditions: 40 hours incubation, 95% Confidence Intervals in parentheses, read-out: T. b. brucei IC50
Method: The growth inhibition assay for T. brucei brucei was conducted as described previously by Z. B. Mackey (Kenny K. H. Ang, Joseline Ratnam, Jiri Gut, Jennifer Legac, Elizabeth Hansell, Zachary B. Mackey, Katarzyna M. Skrzypczynska, Anjan Debnath, Juan C. Engel, Philip J. Rosenthal, James H. McKerrow, Michelle R. Arkin, Adam R. Renslo (2010) “Mining a Cathepsin Inhibitor Library for New Antiparasitic Drug Leads”, PLoS Neglected Tropical Diseases, 5(5):e1023). Bloodstream forms of the monomorphic T. brucei brucei clone 427-221a were grown in complete HMI-9 medium containing 10% FBS, 10% Serum Plus medium (Sigma Inc., St. Louis, Mo., USA), 50 U/mL penicillin and […] streptomycin (Invitrogen) at 370 C under a humidified atmosphere and 5% CO2. […] of each dilution was added to […] of diluted parasites ([…]) in sterile Greiner 96-well flat white opaque culture plates such that the final DMSO concentration was 0.5%. The 0% inhibition control wells contained 0.5% DMSO while 100% inhibition control wells contained 50 mM thimerosal (Sigma-Aldrich, St. Louis, Mo.). After compound addition, plates were incubated for 40 hours at 370 C. At the end of the incubation period, […] of CellTiter-Glo™ reagent (Promega Inc., Madison, Wis., USA) was added to each well and plates were placed on an orbital shaker at room temperature for 2 min to induce lysis. After an additional 10 min of incubation without shaking, to stabilize the signal, the ATP-bioluminescence of each well was determined using an Analyst HT Plate Reader (Molecular Devices, Sunnyvale, Calif., USA). Raw values were converted to log 10 and percentage inhibition calculated relative to the controls. IC50 curve fittings were performed with Prism 4 software as above. Pentamidine was used as a comparator in the assay.

P. falciparum strain 3D7 = experiment: Plasmodium falciparum activity assay (SYBR Green I method); assay type: cell-based; conditions: strain 3D7 in human erythrocytes, 72 h incubation
Method: P. falciparum strain 3D7 was cultured according to the method of Trager and Jensen (W. Trager, J. B. Jensen (1976) “Human malaria parasites in continuous culture”, Science, 193(4254):673-5) with minor modifications. Parasites were grown in human erythrocytes (2% hematocrit) in an atmosphere of 5% CO2, 5% O2, 90% N2 in RPMI 1640 medium (Gibco) supplemented with 25 mM hepes buffer (Sigma), 25 mg/L gentamicin (Gibco, Life Technologies, Grand Island, N.Y.), 1 mM sodium pyruvate (Sigma), 50 mg/L hypoxanthine (Sigma), 2 g/L glucose (Sigma), 2.52 g/L sodium bicarbonate (Sigma) and 5 g/L Albumax 1 (Gibco). In vitro antimalarial activity was determined by the SYBR Green I method described by Smilkstein (Smilkstein M, Sriwilaijaroen N, Kelly J X, Wilairat P, Riscoe M. (2004) “Simple and inexpensive fluorescence-based technique for high-throughput antimalarial drug screening”. Antimicrob. Agents Chemother., 48(5):1803-6. PMCID: 400546) with modifications (see Winter R W, Kelly J X, Smilkstein M J, Dodean R, Bagby G C, Rathbun R K (2006) “Evaluation and lead optimization of anti-malarial acridones”. Exp. Parasitol., 114(1):47-56). […] After incubation for 1 h at room temperature in the dark, plates were read on a Safire2 (Tecan) plate reader with excitation and emission wavelengths of […], respectively. […]

Structure (SMILES) | IC50 [1] | IC50 (P. falciparum strain 3D7)
CN[C@]1(c2ccccc2Cl)CCCC[C@H]1NCCCn1ccnc1 (relative stereo) [Example 12a, Trans-1-(2-chlorophenyl)-N^2-(3-(1-imidazolyl)-propyl)-N^1-methylcyclohexane-1,2-diamine] | 16 µM | –
CN[C@@]1(c2ccccc2Cl)CCCC[C@H]1NCCCc1ccccc1 (relative stereo) [Example 15b, Cis-1-(2-chlorophenyl)-N^2-(3-phenylpropyl)-N^1-methylcyclohexane-1,2-diamine] | 4.6 µM | 2.5 µM
CN[C@@]1(c2ccccc2Cl)CCCC[C@H]1NCCCN1CCOCC1 (relative stereo) [Example 16b, Cis-1-(2-chlorophenyl)-N^2-(3-(morpholin-1-yl)propyl)-N^1-methylcyclohexane-1,2-diamine] | 1.7 µM | 18 µM
